The record followed here is PMC7641330 (2020).

For test [1], the system named is A13(2AP) Tte riboswitch (RNA, riboswitch, 2-aminopurine at 13) CUGGGUCGCAGUAACCCCAGUUAACAAAACAAG
As to the kind of experiment: ITC. The following applies: 100 mM NaCl, 4 mM MgCl2; 50 mM Na-HEPES pH 7.0, 25 °C.

Test [2] relates to A10(2AP) Tte riboswitch (RNA, riboswitch, 2-aminopurine at 10) CUGGGUCGCAGUAACCCCAGUUAACAAAACAAG
Briefly: ITC. The following applies: 100 mM NaCl, 4 mM MgCl2; 50 mM Na-HEPES pH 7.0, 25 °C.

In test [3] the test system is A14(2AP) Tte riboswitch (RNA, riboswitch, 2-aminopurine at 14) CUGGGUCGCAGUAACCCCAGUUAACAAAACAAG
Briefly: 2-aminopurine fluorescence titration, one-site fit. Particulars: 100 mM NaCl, 2 mM MgCl2; 50 mM Na-HEPES pH 7.0; 100 nM RNA.

Test [4] deals with A32(2AP) Tte riboswitch (RNA, riboswitch, 2-aminopurine at 32) CUGGGUCGCAGUAACCCCAGUUAACAAAACAAG
As to the kind of experiment: 2-aminopurine fluorescence titration, one-site fit. Particulars: 100 mM NaCl, 2 mM MgCl2; 50 mM Na-HEPES pH 7.0; 100 nM RNA.

Test [5] concerns A10(2AP) Tte riboswitch (RNA, riboswitch, 2-aminopurine at 10) CUGGGUCGCAGUAACCCCAGUUAACAAAACAAG
As to the kind of experiment: 2-aminopurine fluorescence titration, one-site fit. Particulars: 100 mM NaCl, 2 mM MgCl2; 50 mM Na-HEPES pH 7.0; 100 nM RNA.

The test system of test [6] is A32(2AP) Tte riboswitch (RNA, riboswitch, 2-aminopurine at 32) CUGGGUCGCAGUAACCCCAGUUAACAAAACAAG
As to the kind of experiment: ITC. The following applies: 100 mM NaCl, 4 mM MgCl2; 50 mM Na-HEPES pH 7.0, 25 °C.

The test system of test [7] is A14(2AP) Tte riboswitch (RNA, riboswitch, 2-aminopurine at 14) CUGGGUCGCAGUAACCCCAGUUAACAAAACAAG
Briefly: ITC. The following applies: 100 mM NaCl, 4 mM MgCl2; 50 mM Na-HEPES pH 7.0, 25 °C.

The test system of test [8] is Wildtype Tte preQ1-I riboswitch 33-mer (RNA, riboswitch) CUGGGUCGCAGUAACCCCAGUUAACAAAACAAG
Briefly: ITC. The following applies: 100 mM NaCl, 4 mM MgCl2; 50 mM Na-HEPES pH 7.0, 25 °C.

For test [9], the system named is A13(2AP) Tte riboswitch (RNA, riboswitch, 2-aminopurine at 13) CUGGGUCGCAGUAACCCCAGUUAACAAAACAAG
As to the kind of experiment: 2-aminopurine fluorescence titration, one-site fit. The following applies: 100 mM NaCl, 2 mM MgCl2; 50 mM Na-HEPES pH 7.0; 100 nM RNA.

The subject of test [10] is Wildtype Tte riboswitch, biotinylated (SPR) (RNA, riboswitch) CUGGGUCGCAGUAACCCCAGUUAACAAAACAAG
As to the kind of experiment: SPR, 1:1 kinetic fit. Particulars: 100 mM NaCl, 3 mM MgCl2; 10 mM Na-HEPES pH 7.4; immobilised RNA. (In general: Surface plasmon resonance follows binding to a sensor surface in real time, without labels.)

Usually KD stands for the constant that tells how readily two partners part at equilibrium. High values mean a looser complex, low ones a tighter complex. The term apparent KD denotes a dissociation constant that holds for the conditions of the assay. Turning to `NCc1c[nH]c2nc(N)[nH]c(=O)c12`, the KD in test [1] was 21.6 ± 1.1 nM; in test [2], 12.6 ± 2.0 nM; in test [6], 10.5 ± 2.4 nM; in [7] it was 19.3 ± 0.8 nM; in test [8], 8.1 ± 0.9 nM; in test [10] it was 1.84 ± 0.08 × 10^-9 M. For the same molecule, the “apparent KD” value in [3] amounted to 34.2 ± 1.6 nM; in test [4], 12.3 ± 1.4 nM; in [5], 13.9 ± 0.7 nM; in test [9] it was 25.7 ± 2.4 nM.
